Experimental data from patent publication US10604512B2, “3-(1H-indol-2-yl)-1H-indazoles and therapeutic uses thereof” (Samumed, LLC, priority 2015, dated 2020).

Assays:
Type in all cases: cell-based
[1] = tested on: Wnt activity (Sp5-Luc reporter, TCF/LEF binding sites) in SW480 colon carcinoma cells; assay: Screening assay for Wnt activity: Sp5-Luc reporter gene assay in stably transduced SW480 colon carcinoma cells; details: Homo sapiens, overnight incubation, 10-point curve from 10 μM
Method in brief: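 SW480 cells stably transduced with a luciferase reporter driven by an Sp5 promoter of eight TCF/LEF sites were plated at 4,000 cells/well in 1% FBS medium. They were exposed overnight at 37° C to a 10-point 1:3 dilution series from 10 μM (0.1% DMSO). Luminescence was normalized to DMSO for four-parameter EC50, or percent inhibition at 10 μM.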

SW480 colon cancer cells = assay: Cell viability assay (CellTiter-Blue) in SW480 colon cancer cells; details: Homo sapiens, 96 h, four days, CellTiter-Blue
Method in brief: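 Four-day viability readout in SW480 cells: compound at 0.0045–10 μM (1:3 series), DMSO controls in eight replicates, CellTiter-Blue fluorescence after ~3 h. Values are regression-derived EC50s, or percent inhibition at 10 μM when EC50 exceeds 10 μM.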

[2] = tested on: Primary human fibroblasts derived from IPF patients (LL29 cells) treated with TGF-β1; assay: Inhibition of the fibrotic process: αSMA staining in TGF-β1-treated primary human fibroblasts from IPF patients (LL29 cells); details: Fibroblast, 96 h, % αSMA-positive LL29 cells, TGF-β1 20 ng/mL, 4 days
Method in brief: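 LL29 IPF-patient fibroblasts in 1% FBS stimulated with TGF-β1 (20 ng/mL) and compound (10 μM–1.87 nM, 0.1% DMSO) for 4 days at 37 °C. SYTOX-positive cells excluded; % αSMA-positive cells imaged, normalized to TGF-β1/DMSO wells; EC50 by nonlinear regression, else % inhibition at 10 μM.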

IL-6 = assay: Inhibition of IL-6 in LPS-stimulated THP-1 human monocyte cells (HTRF); details: IL-6 inhibition, LPS-stimulated THP-1 cells, HTRF
Method in brief: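 THP-1 cells serum-reduced (1% FBS, 24 h), then 5000 cells/well preincubated 2 h with compound (10-point 1:3 series from 10 μM, 0.1% DMSO) before 500 ng/mL LPS for 22 h at 37 °C. Secreted IL-6 quantified by HTRF 665/620 ratio; DMSO-normalised duplicates fitted to four-parameter EC50; above 10 μM, % inhibition at 10 μM given.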

[3] = tested on: primary human mesenchymal stem cells (hMSCs); assay: Induction of chondrogenesis in primary human mesenchymal stem cells (nodule imaging, Rhodamine B / Nile Red)
Procedure: Representative compounds were screened using primary human mesenchymal stem cells (hMSCs) to determine their ability to induce chondrogenesis (process by which cartilage is developed).
Primary human mesenchymal stem cells (hMSCs) were purchased from Lonza (Walkersville, Md.) and expanded in Mesenchymal Stem Cell Growth Media (Lonza). Cells between passage 3 and 6 were used for the experiments.
Each compound was dissolved in DMSO as a 10 mM stock and used to prepare compound source plates. For the 96 well assay, serial dilution (1:3, 6-point dose-response curves from 2700 nM to 10 nM) and compound transfer was performed using the ECHO 550 (Labcyte, Sunnyvale, Calif.) into 96-well clear bottom assay plates (Greiner Bio-One) with appropriate DMSO backfill for a final DMSO concentration of 0.03%. hMSCs were plated at 20,000 cells/well in 250 μL/well Incomplete Chondrogenic Induction Medium (Lonza; DMEM, dexamethasone, ascorbate, insulin-transferrin-selenium [ITS supplement], gentamycin-amphotericin [GA-1000], sodium pyruvate, proline and L-glutamine). TGF-β3 (10 ng/mL) was used as a positive control for differentiation while negative control wells were treated with 75 nL DMSO for normalization and calculating EC50 values. For the 384 well assay, serial dilution (1:3, 8-point dose-response curves from 5000 nM to 2.2 nM) and compound transfer was performed using the ECHO 550 (Labcyte, Sunnyvale, Calif.) into 384-well clear bottom assay plates (Greiner Bio-One) with appropriate DMSO backfill for a final DMSO concentration of 0.03%. hMSCs were plated at 8,000 cells/well in 80 μL/well Incomplete Chondrogenic Induction Medium (Lonza; DMEM, dexamethasone, ascorbate, insulin-transferrin-selenium [ITS supplement], gentamycin-amphotericin [GA-1000], sodium pyruvate, proline and L-glutamine). TGF-β3 (10 ng/mL) was used as a positive control for differentiation while negative control wells were treated with 25 nL DMSO for normalization and calculating EC50 values. Cells were incubated at 37° C. and 5% CO2 for 6 days. To image chondrogenic nodules, the cells were fixed using 4% formaldehyde (Electron Microscopy Sciences), and stained with 2 μg/mL Rhodamine B (Sigma-Aldrich) and 20 μM Nile Red (Sigma-Aldrich) [Johnson K., et. al, A Stem CellBased Approach to Cartilage Repair, Science, (2012), 336(6082), 717-721]. The nodules imaged (25 images per well for 96 well plates and 9 images per well for 384 well plates at 10× magnification) by excitation at 531 nm and emission at 625 nm and quantified using the CellInsight CX5 (Thermo Scientific). Area of nodules in each well was normalized to the average of 3 DMSO treated wells on the same plate using Excel (Microsoft Inc.). The normalized averages (fold change over DMSO) of 2 or 3 replicate wells for each compound concentration were calculated. Due to solubility limitations of some of the compounds, curve fitting was incomplete leading to inaccurate EC50 determinations.
Using TGF-β3 as a positive control, the concentration of representative compounds required to induce 50% levels of chondrogenesis is reported. In addition, the maximum activity of each compound and the respective dose that each compound reached maximum chondrogenesis activity is reported.

Row | Structure (SMILES) | EC50 [1] | EC50 (SW480 colon cancer cells) | EC50 [2] | EC50 (IL-6) | EC50 ([3]; concentration required to induce 50% levels of chondrogenesis vs TGF-β3 positive control, read-out: Conc (nM) of 50% TGF-β3 activity) | Emax ([3]; maximum chondrogenesis activity relative to TGF-β3 (10 ng/mL) positive control, read-out: Max. Activity as % TGF-β3 activity)
1 | NC1CN(c2cncc(-c3ccc4[nH]nc(-c5cc6c(N7CCCCC7)cccc6[nH]5)c4c3)n2)C1 [Compound 634, 1-(6-(3-(4-(piperidin-1-yl)-1H-indol-2-yl)-1H-indazol-5-yl)pyrazin-2-yl)azetidin-3-amine] | 468 nM | 1250 nM | 794 nM | 74 nM | – | –
2 | COc1cncc(-c2ccc3[nH]nc(-c4cc5c(-c6ccsc6)cccc5[nH]4)c3c2)c1 [Compound 704, 5-(5-Methoxypyridin-3-yl)-3-(4-(thiophen-3-yl)-1H-indol-2-yl)-1H-indazole] | 565 nM | 1800 nM | 31 nM | 245 nM | – | –
3 | O=C(CC1CCCCC1)Nc1cncc(-c2ccc3[nH]nc(-c4cc5c(-c6ccsc6)cccc5[nH]4)c3c2)c1 [Compound 707, 2-Cyclohexyl-N-(5-(3-(4-(thiophen-3-yl)-1H-indol-2-yl)-1H-indazol-5-yl)pyridin-3-yl)acetamide] | 570 nM | 2130 nM | > 10000 nM | 1300 nM | – | –
4 | CN(C)CCOc1cncc(-c2ccc3[nH]nc(-c4cc5c(-c6ccoc6)cccc5[nH]4)c3c2)c1 [Compound 719, 2-((5-(3-(4-(Furan-3-yl)-1H-indol-2-yl)-1H-indazol-5-yl)pyridin-3-yl)oxy)-N,N-dimethylethan-1-amine] | 680 nM | 1370 nM | 1950 nM | 1710 nM | – | –
5 | COc1cncc(-c2ccc3[nH]nc(-c4cc5c(-c6ccoc6)cccc5[nH]4)c3c2)c1 [Compound 720, 3-(4-(Furan-3-yl)-1H-indol-2-yl)-5-(5-methoxypyridin-3-yl)-1H-indazole] | 588 nM | 1400 nM | – | 329 nM | 10 nM | 151%
6 | c1cc(-c2ccoc2)c2cc(-c3n[nH]c4ccc(-c5cnccn5)cc34)[nH]c2c1 [Compound 724, 3-(4-(Furan-3-yl)-1H-indol-2-yl)-5-(pyrazin-2-yl)-1H-indazole] | 791 nM | 3510 nM | 96 nM | 31 nM | – | –
7 | CS(=O)(=O)NCc1cc(F)cc(-c2cccc3[nH]c(-c4n[nH]c5ccc(-c6cncc(OCc7ccccc7)c6)cc45)cc23)c1 [Compound 802, N-(3-(2-(5-(5-(Benzyloxy)pyridin-3-yl)-1H-indazol-3-yl)-1H-indol-4-yl)-5-fluorobenzyl)methanesulfonamide] | 189 nM | 461 nM | 400 nM | 802 nM | – | –
8 | CN(C)CCNc1cc(F)cc(-c2cccc3[nH]c(-c4n[nH]c5ccc(-c6cnn(C)c6)cc45)cc23)c1 [Compound 808, N^1-(3-Fluoro-5-(2-(5-(1-methyl-1H-pyrazol-4-yl)-1H-indazol-3-yl)-1H-indol-4-yl)phenyl)-N^2,N^2-dimethylethane-1,2-diamine] | 69 nM | 89 nM | 88 nM | 6 nM | – | –
9 | CN(C)CCNc1cc(F)cc(-c2cccc3[nH]c(-c4n[nH]c5ccc(-c6cncc(N7CC(N)C7)n6)cc45)cc23)c1 [Compound 810, N^1-(3-(2-(5-(6-(3-Aminoazetidin-1-yl)pyrazin-2-yl)-1H-indazol-3-yl)-1H-indol-4-yl)-5-fluorophenyl)-N^2,N^2-dimethylethane-1,2-diamine] | 224 nM | 458 nM | 653 nM | 77 nM | – | –
